Data taken from US8030083B2, “Method of analyzing protein structural affinity relationship” (Eisai R & D Management Co., Ltd., priority 2004, dated 2011).

How the values were obtained:
water solubility = assay type: physicochemical
[1] = target: T1, mitochondrial malate dehydrogenase (mMDH) (Homo sapiens, UniProt P40926); details: Knockaert et al.; cited from earlier work
T1 sequence (P40926 25-338): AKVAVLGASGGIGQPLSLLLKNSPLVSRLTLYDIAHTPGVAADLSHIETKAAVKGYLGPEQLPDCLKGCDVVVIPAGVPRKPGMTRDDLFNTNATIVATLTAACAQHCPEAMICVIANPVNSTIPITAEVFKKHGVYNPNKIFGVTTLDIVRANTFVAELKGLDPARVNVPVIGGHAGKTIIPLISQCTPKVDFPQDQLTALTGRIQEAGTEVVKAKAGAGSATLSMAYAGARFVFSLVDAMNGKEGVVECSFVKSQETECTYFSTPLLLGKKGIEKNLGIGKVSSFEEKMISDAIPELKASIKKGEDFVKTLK

CDK = details: Knockaert et al.; cited from earlier work

water solubility (water solubility) | SMILES | inhibition of mMDH activity [1] | inhibition of CDK (CDK)
poor in water solubility | NS(=O)(=O)c1ccc(S(=O)(=O)Nc2cccc3c(Cl)c[nH]c23)cc1 [E7070] | – | –
– | O=C1Cc2c([nH]c3ccccc23)-c2ccccc2N1 [paullone] | inhibits mMDH activity with certainty | inhibitor
